Results on 29 molecules are retold here after ChEMBL document CHEMBL5137003, “Recent advancement in small molecules as HCV inhibitors” (Bioorg Med Chem, 2022).

Test [1] concerns Hepatitis C virus. The test can be described thus: Antiviral activity against HCV JFH-1 infected in Huh7.5.1 cells assessed as decrease in intracellular and extracellular HCV RNA level measured after 3 days by RT-qPCR assay. It is filed as functional, organism-based, Hepacivirus hominis. Conditions: JFH-1, Huh-7.5.1, 72 h. For orientation: Real-time PCR tracks product formation cycle by cycle.

For test [2], the system named is Hepatitis C virus. In words: Inhibition of HCV replication in human Huh7.5 cells after 3 hrs by renilla luciferase assay. Conditions: Huh7.5, 3 h. It is filed as functional, cell-based, Hepacivirus hominis.
Test [3] is described as follows: Inhibition of Hepatitis C virus NS3 helicase measured by DNA unwinding based assay. Also on record: species or system Hepacivirus hominis.
Test [4] deals with Hepatitis C virus. The test can be described thus: Antiviral activity against HCV GT-3a. It is filed as functional, organism-based, Hepacivirus hominis. The settings on record: subtype 3a.
Test [5] can be described thus: Inhibition of hepatitis C virus p7 ion channel. Also on record: species or system Hepacivirus hominis.
Test [6] concerns the target T1, Hepatitis C virus serine protease, NS3/NS4A (Hepatitis C virus, UniProt A3EZI9+D2K2A8). In words: Inhibition of HCV GT-1b NS3/4A protease measured by fluorescence assay. The format is protein-complex assay, Hepacivirus hominis, subtype 1b.
Test [7] has as its system Hepatitis C virus. The test can be described thus: Inhibition of HCV replication. It is filed as functional, Hepacivirus hominis.
Test [8] deals with Hepatitis C virus. In words: Antiviral activity against HCV GT-1b. It is filed as functional, organism-based, Hepacivirus hominis. The settings on record: subtype 1b.
In test [9] the target is T1, Hepatitis C virus serine protease, NS3/NS4A. The test can be described thus: Inhibition of HCV GT-3a NS3/4A protease measured by fluorescence assay. It is filed as protein-complex assay, Hepacivirus hominis, subtype 3a.
The test system of test [10] is Hepatitis C virus. The test can be described thus: Inhibition of HCV replicon cells. The format is functional, Hepacivirus hominis. Background: A replicon is a self-replicating genome or part of one, used to study replication in cells.
For test [11], the target named is T1, Hepatitis C virus serine protease, NS3/NS4A. The test can be described thus: Inhibition of HCV GT-3a NS3/4A protease. It is filed as protein-complex assay, Hepacivirus hominis, subtype 3a.
The test system of test [12] is Hepatitis C virus. The test can be described thus: Antiviral activity against HCV JFH-1 infected in Huh7.5 cells and measured after 4 days. The settings on record: JFH-1, Huh7.5, 96 h. It is filed as functional, organism-based, Hepacivirus hominis.
In test [13] the test system is Hepatitis C virus. In words: Inhibition of HCV replication in human Huh7.5 cells cultured with SGR-Neo-RLuc-JFH1-2A replicon celIs measured after 72 hrs by luciferase assay. It is filed as functional, cell-based, Hepacivirus hominis. The settings on record: JFH-1, Huh7.5, 72 h.
Test [14] has as its target T1, Hepatitis C virus serine protease, NS3/NS4A. In words: Inhibition of HCV GT1b recombinant NS3/4A protease using Ac-Glu-Glu-Val-Val-Ala-Cys-AMC as substrate and measured by fluorescence based assay. The format is protein-complex assay, Hepacivirus hominis, subtype 1b.
A short description of test [15]: Inhibition of HCV GT1b full-length NS3/4A protease D168A mutant using Ac-Glu-Glu-Val-Val-Ala-Cys-AMC as substrate and measured by fluorescence based assay. Also on record: species or system Hepacivirus hominis, subtype 1b.
Test [16] relates to Hepatitis C virus. The test can be described thus: Antiviral activity against HCV infected in Huh-7.5.1 cells assessed as inhibition of HCV production measured after 24 hrs by titration assay. It is filed as functional, organism-based, Hepacivirus hominis. The settings on record: Huh-7.5.1, 24 h.
Test [17] in a line: Inhibition of Cy5-dT15 ssDNA to Hepatitis C virus subtype 1b (Con1) NS3 helicase measured by fluorescence polarization (FP) based ssDNA binding assay. Set-up: species or system Hepacivirus hominis. Background: Polarisation of emitted light reports the rotation of a fluorescent probe.
For test [18], the system named is Hepatitis C virus. The test can be described thus: Antiviral activity against HCV GT-1b infected in Huh-5-2 cells and measured after 24 hrs by luciferase assay. The format is functional, organism-based, Hepacivirus hominis. The settings on record: subtype 1b, Huh-5-2, 24 h.
Test [19] deals with Internal ribosome entry site (IRES). The test can be described thus: Disruption of hepatitis C virus-internal ribosome entry site (IRES) RNA base stacking interaction. Also on record: species or system Hepacivirus hominis.
Test [20] relates to Hepatitis C virus. The test can be described thus: Antiviral activity against HCV GT-3a infected in Huh-5-2 cells and measured after 72 hrs by luciferase assay. Conditions: subtype 3a, Huh-5-2, 72 h. It is filed as functional, organism-based, Hepacivirus hominis.
For test [21], the system named is Hepatitis C virus. In words: Antiviral activity against HCV GT-1b infected in Huh-5-2 cells and measured after 72 hrs by luciferase assay. The format is functional, organism-based, Hepacivirus hominis. The settings on record: subtype 1b, Huh-5-2, 72 h.
In test [22] the test system is Hepatitis C virus. The test can be described thus: Antiviral activity against HCV GT-3a (S52) assessed as inhibition of viral replication measured by renilla luciferase assay. The settings on record: subtype 3a. It is filed as functional, organism-based, Hepacivirus hominis.
Test [23] has as its system Hepatitis C virus. The test can be described thus: Antiviral activity against HCV assessed as inhibition of viral fusion and replication at attachment stage. It is filed as functional, organism-based, Hepacivirus hominis.
Test [24] deals with RNA-directed RNA polymerase (Hepacivirus hominis, UniProt O39930). The test can be described thus: Inhibition of Hepatitis C virus NS5B RNA-dependent-RNA-polymerase.
The nature of test [25]: Inhibition of Hepatitis C virus NS3 protease. Set-up: species or system Hepacivirus hominis.
The test system of test [26] is Hepatitis C virus. The test can be described thus: Antiviral activity against HCV GT-1a expressing NS5B C316Y mutant variant. The settings on record: subtype 1a. The format is functional, organism-based, Hepacivirus hominis.
Test [27] deals with Hepatitis C virus. The test can be described thus: Antiviral activity against HCV GT-1a expressing NS5B S365A mutant variant. It is filed as functional, organism-based, Hepacivirus hominis. The settings on record: subtype 1a.
The test system of test [28] is Hepatitis C virus. In words: Antiviral activity against HCV GT-4a. The settings on record: subtype 4a. It is filed as functional, organism-based, Hepacivirus hominis.

`Cc1cc(Oc2ccc(N)cn2)ccc1Cl`: in the test on Hepatitis C virus [1], the half-maximal effective concentration (EC50) is 80 nM.

In the test with Hepatitis C virus [2], `O=C(NCc1ccco1)c1ccc2[nH]c(COc3ccc(C45CC6CC(CC(C6)C4)C5)cc3)nc2c1` had an EC50 of 1500 nM.

In [3], `COc1ccc2c(c1)c(C=C1C(=O)NC(=S)NC1=O)cn2C(=O)c1cccc2ccccc12` showed an IC50 of 23500 nM.

Turning to `COC(=O)N[C@H](C(=O)N1CCC[C@H]1c1nc(C#CC#Cc2ccc(-c3c[nH]c([C@@H]4CCCN4C(=O)[C@@H](NC(=O)OC)C(C)C)n3)cc2)c[nH]1)C(C)C`, a half-maximal response with Hepatitis C virus [4] (EC50) required 2.45 nM.

In the case of `O=C1CCC(C23CC4CC(CC(C4)C2)C3)=NN1c1ccccc1`, in test [5], half-maximal inhibition (IC50) required 520 nM.

Consider `Cc1cc(NC(=O)Cc2csc(NS(=O)(=O)c3ccccc3)n2)ccc1Br`, for which, in test [6], the concentration for half-maximal inhibition (IC50) was 2200 nM.

In turn, `CCN(CC)c1ccc(Oc2ccc(-c3[nH]c4cccc(F)c4c(=O)c3C)cc2F)cc1` displayed a 50% effective concentration (EC50) with Hepatitis C virus [7] of 5 nM.

Regarding `O=C(N[C@@H](C(=O)N1CCC[C@H]1c1ncc(-c2ccc(-c3ccc(-c4cnc([C@@H]5CCCN5C(=O)[C@H](NC(=O)C5CC5)c5ccccc5)s4)cc3)cc2)s1)c1ccccc1)C1CC1`, in the test on Hepatitis C virus [8], the EC50 was found to be 0.003 nM.

For the molecule `COc1ccc2c(c1)c(C=C1C(=O)NC(=S)NC1=O)cn2C(=O)c1ccc2ccccc2c1`, in [3], inhibition was half-maximal at 21400 nM (IC50).

For `Cc1ccc(S(=O)(=O)Nc2ccccc2C(=O)Nc2nc3c(Cl)ccc(Cl)c3s2)cc1`, the 50% inhibitory concentration (IC50) in test [9] stood at 1600 nM.

In the case of `O=C1NC(=S)NC(=O)C1=Cc1cn(C(=O)c2ccc3ccccc3c2)c2ccccc12`, it took 21600 nM to reach half-maximal inhibition in [3] (IC50).

As to `COC(=O)N[C@H](C(=O)N1CCC[C@H]1c1ncc(-c2ccc(C#CC#Cc3cnc([C@@H]4CCCN4C(=O)[C@H](NC(=O)OC)c4ccccc4)[nH]3)c(-c3cccc(F)c3F)c2)[nH]1)C(C)C`, half-maximal inhibition in the test with Hepatitis C virus [4] (IC50) was put at 0.016 nM.

In the case of `O=C(Nc1ccn([C@@H]2O[C@H](CO)[C@@H](O)C2(F)F)c(=O)n1)C1Cc2ccccc2C1`, in the test with Hepatitis C virus [10], the IC50 stood at 10 nM.

`[2H]C([2H])([2H])Oc1cc2ccnc(O[C@@H]3C[C@H]4C(=O)N[C@]5(C(=O)NS(=O)(=O)C6(C)CC6)C[C@H]5/C=C/CC[C@@H](C)C[C@@H](CC)[C@H](NC(=O)OC(C)(C)C(F)(F)F)C(=O)N4C3)c2cc1F` yielded a concentration for half-maximal inhibition (IC50) in test [11] of 4.8 nM.

With `CCC[C@H](NC(=O)[C@@H]1[C@H]2CCC[C@H]2CN1C(=O)[C@@H](NC(=O)[C@@H](NC(=O)c1cnc(C(=O)NCCOCCOCCOc2cc3c4c(cccc4c2)C(=O)N(C2CCC(=O)NC2=O)C3=O)cn1)C1CCCCC1)C(C)(C)C)C(=O)C(=O)NC1CC1` (stereo partly drawn), in the test with Hepatitis C virus [12], inhibition was half-maximal at 748 nM (IC50).

In the test with Hepatitis C virus [13], `O=C(Nc1ccc(C2=NCCN2)cc1)c1cc(C(=O)Nc2ccc(C3=NCCN3)cc2)cc(C(=O)Nc2ccc(C3=NCCN3)cc2)c1` had an IC50 of 14000 nM.

For `CC(C)c1ccc(NC(=O)N[C@@H](Cc2c[nH]c3ccccc23)C(=O)NCCCN2CCCCC2)cc1`, the IC50 in test [14] is 4600 nM; in test [15] it was 5980 nM.

As for `CC1(NCc2nnc(-c3cc(O)cc(O)c3)[nH]2)C2CC3CC(C2)CC1C3` (stereo not drawn), the IC50 in the test with Hepatitis C virus [16] turned out to be 6420 nM.

On to `CCCCC(O)c1cccc(=O)o1` (stereo not drawn), for which the IC50 in [17] came to 2800 nM.

Consider `CCOC(=O)N[C@@H](CC(C)C)C(=O)N1CCC[C@H]1C(=O)Nc1cccc(C#CC#Cc2cccc(NC(=O)[C@@H]3CCCN3C(=O)[C@H](CC(C)C)NC(=O)OCC)c2)c1`, for which a half-maximal effect in the test with Hepatitis C virus [18] (EC50) was put at 0.0399 nM.

For `CN1CCN(CCCNc2nc3cc([N+](=O)[O-])ccc3nc2NCc2ccc(NC(=O)/C=C/c3ccc(N(C)C)cc3)cc2)CC1`, the response in test [19] was half-maximal at 67000 nM (EC50).

Turning to `CCOC(=O)N[C@@H](C(=O)N1CCC[C@@H]1C(=O)Nc1ccc2c(c1)Cc1cc(NC(=O)[C@H]3CCCN3C(=O)[C@H](NC(=O)OCC)c3ccccc3)ccc1-2)c1ccccc1`, the EC50 in the test with Hepatitis C virus [20] turned out to be 1.2 nM; with Hepatitis C virus [21], 0.036 nM.

In turn, `CCCCOC(=O)N[C@H](C(=O)N1CCC[C@H]1C(=O)Nc1ccc(-c2ccc(NC(=O)[C@@H]3CCCN3C(=O)[C@@H](NC(=O)OCCCC)c3ccccc3)cc2)cc1)c1ccccc1` gave an EC50 in the test with Hepatitis C virus [8] of 0.0067 nM.

In the test with Hepatitis C virus [4], `COc1ccc(N/C=C2\C(=O)N(Cc3ccccc3)c3ccccc32)cc1` registered a half-maximal effective concentration (EC50) of 738 nM.

On to `CC(C)(C)OC(=O)c1c(NC(=O)NCc2c(C(F)(F)F)sc3c2CCNC3)sc2c1CCCC2`, for which, in the test on Hepatitis C virus [22], the EC50 came out at 0.21 nM.

Consider `COc1ccc2cc3[n+](cc2c1OC)CCc1cc2c(cc1-3)OCO2` [BERBERINE], for which the concentration for a half-maximal effect (EC50) in the test with Hepatitis C virus [23] stood at 7870 nM.

`O=C(O[C@@H]1O[C@@H]2COC(=O)c3cc(O)c(O)c(O)c3-c3c(cc(O)c(O)c3O)C(=O)O[C@H]([C@H]1O)[C@@H]2O)c1cc(O)c(O)c(O)c1` [CORILAGIN]: the concentration for half-maximal inhibition (IC50) in test [24] was 20000 nM; in test [25], less than 1000 nM.

On to `CNC(=O)c1c(-c2ccc(F)cc2)oc2cc(N(C)S(C)(=O)=O)c(-c3ccc4c(n3)-c3cc5c(F)cccc5n3CO4)cc12` [MK-8876], for which the EC50 with Hepatitis C virus [26] turned out to be 2.3 nM; in the test on Hepatitis C virus [27] it was 1 nM.

For `COC(=O)N[C@H](C(=O)N1CCC[C@H]1C(=O)Nc1ccc([C@@H]2CC[C@@H](c3ccc(NC(=O)[C@@H]4CCCN4C(=O)[C@@H](NC(=O)OC)C(C)C)cc3)N2c2ccc(C(C)(C)C)cc2)cc1)C(C)C` [OMBITASVIR], in the test on Hepatitis C virus [28], the 50% effective concentration (EC50) worked out at 0.00171 nM.

The EC50 is the concentration at which the effect is half-maximal. For orientation: IC50 means the concentration that gives 50% inhibition.
